These results are taken from patent publication US11661413B2, “Pyrazole compounds or salts thereof, preparation method therefor, herbicidal composition and use thereof” (priority 2015, dated 2023).

The subject of test [1] is Barnyard grass. Put plainly: weed control effect in post emergence stage, greenhouse pot spray. Format: in vivo. Conditions: sprayed at 2-3 leaf stage, after 3 weeks. The protocol: (§1) The activity level standard of harmful plant damage (i.e. growth inhibition rate) is as follows: The above described growth control rate is fresh weight control rate. Monocotyledonous and dicotyledonous weed seeds and main crop seeds (i.e. wheat, corn, rice, soybean, cotton, oilseed, millet and Sorghum) were put into a plastic pot loaded with soil. Then covered with 0.5-2 cm soil, the seeds were allowed to grow in good greenhouse environment. The test plants were treated at 2-3 leaf stage 2-3 weeks after sowing. […] The solution was sprayed to the plants with a sprayer. Then the plants were cultured for 3 weeks in the greenhouse.

Test [2] relates to Flixweed. The description is as above. The test is classed as in vivo. Conditions: 16 g/mu, sprayed at 2-3 leaf stage, after 3 weeks. On the procedure: as §1

Consider `CCn1ncc(C(=O)c2ccc(S(C)(=O)=O)c(Cn3cc(C)cn3)c2Cl)c1O` [Compound 19], for which the “weed control effect (activity level), Barnyard grass” value (“weed control effect … Barnyard grass” below) in test [1] (1 g/mu) is 2 (above 20% growth inhibition rate); in test [1] (2 g/mu), 3 (above 30% growth inhibition rate); in test [1] (4 g/mu), 3 (above 30% growth inhibition rate); in test [1] (8 g/mu) it was 4 (above 30% growth inhibition rate); in test [1] (16 g/mu) it was 4 (above 30% growth inhibition rate). The “weed control effect (activity level), Flixweed” value (shortened to “weed control effect … Flixweed”) in test [2] was 10.

For the molecule `CCn1ncc(C(=O)c2ccc(S(C)(=O)=O)c(Cn3nc(C)cc3C)c2Cl)c1O` [Compound 20], the “weed control effect … Barnyard grass” value is 3 (above 30% growth inhibition rate) in test [1] (1 g/mu); 4 (above 30% growth inhibition rate) in test [1] (2 g/mu); 6 (above 60% growth inhibition rate) in test [1] (4 g/mu); 6 (above 60% growth inhibition rate) in test [1] (8 g/mu); 8 (above 80% growth inhibition rate) in test [1] (16 g/mu). For the same molecule, the “weed control effect … Flixweed” value in test [2] was 10.

In the case of `CCCCCOc1c(C(=O)c2ccc(S(C)(=O)=O)c(Cn3nc(C)cc3C)c2Cl)c(C)nn1C` [Compound 38], the “weed control effect … Barnyard grass” value in test [1] (1 g/mu) is on record as 0; in test [1] (2 g/mu) it was 1 (above 1-10% growth inhibition rate); in test [1] (4 g/mu), 1 (above 1-10% growth inhibition rate); in test [1] (8 g/mu), 2 (above 20% growth inhibition rate); in test [1] (16 g/mu), 2 (above 20% growth inhibition rate). In addition, the “weed control effect … Flixweed” value in test [2] is 2 (above 20% growth inhibition rate).

For the molecule `CCOc1c(C(=O)c2ccc(S(C)(=O)=O)c(Cn3nc(C)cc3C)c2Cl)c(C)nn1C` [Compound 37], the “weed control effect … Barnyard grass” value in test [1] (1 g/mu) is on record as 0; in test [1] (2 g/mu), 1 (above 1-10% growth inhibition rate); in test [1] (4 g/mu), 1 (above 1-10% growth inhibition rate); in test [1] (8 g/mu), 2 (above 20% growth inhibition rate); in test [1] (16 g/mu), 2 (above 20% growth inhibition rate). Moreover, the “weed control effect … Flixweed” value in test [2] is on record as 2 (above 20% growth inhibition rate).

Turning to `CCn1nc(C)c(C(=O)c2ccc(S(C)(=O)=O)c(Cn3cc(C)cn3)c2Cl)c1O` [Compound 16], the “weed control effect … Barnyard grass” value in test [1] (1 g/mu) is 2 (above 20% growth inhibition rate); in test [1] (2 g/mu), 3 (above 30% growth inhibition rate); in test [1] (4 g/mu), 4 (above 30% growth inhibition rate); in test [1] (8 g/mu), 4 (above 30% growth inhibition rate); in test [1] (16 g/mu), 6 (above 60% growth inhibition rate). Besides, the “weed control effect … Flixweed” value in test [2] came to 10.

For the molecule `CCc1nn(C(C)C)c(O)c1C(=O)c1ccc(S(C)(=O)=O)c(Cn2nc(C)cc2C)c1Cl` [Compound 29], the “weed control effect … Barnyard grass” value in test [1] (1 g/mu) is given as 2 (above 20% growth inhibition rate); in test [1] (2 g/mu), 3 (above 30% growth inhibition rate); in test [1] (4 g/mu) it was 5 (above 50% growth inhibition rate); in test [1] (8 g/mu) it was 7 (above 70% growth inhibition rate); in test [1] (16 g/mu), 8 (above 80% growth inhibition rate). In addition, in test [2], the “weed control effect … Flixweed” value was 10.

In the case of `CCn1nc(C2CC2)c(C(=O)c2ccc(S(C)(=O)=O)c(Cn3nc(C)cc3C)c2Cl)c1O` [Compound 23], the “weed control effect … Barnyard grass” value was 2 (above 20% growth inhibition rate) in test [1] (1 g/mu); 3 (above 30% growth inhibition rate) in test [1] (2 g/mu); 5 (above 50% growth inhibition rate) in test [1] (4 g/mu); 7 (above 70% growth inhibition rate) in test [1] (8 g/mu); 8 (above 80% growth inhibition rate) in test [1] (16 g/mu). Moreover, the “weed control effect … Flixweed” value in test [2] worked out at 10.

As to `Cc1cnn(Cc2c(S(C)(=O)=O)ccc(C(=O)c3cnn(C)c3O)c2Cl)c1` [Compound 7], the “weed control effect … Barnyard grass” value in test [1] (1 g/mu) was 2 (above 20% growth inhibition rate); in test [1] (2 g/mu), 3 (above 30% growth inhibition rate); in test [1] (4 g/mu) it was 3 (above 30% growth inhibition rate); in test [1] (8 g/mu), 6 (above 60% growth inhibition rate); in test [1] (16 g/mu), 6 (above 60% growth inhibition rate). The “weed control effect … Flixweed” value in test [2] turned out to be 10.

Turning to `CCOC(=O)Oc1c(C(=O)c2ccc(S(C)(=O)=O)c(Cn3nc(C)cc3C)c2Cl)c(C)nn1C` [Compound 36], the “weed control effect … Barnyard grass” value in test [1] (1 g/mu) is given as 2 (above 20% growth inhibition rate); in test [1] (2 g/mu), 3 (above 30% growth inhibition rate); in test [1] (4 g/mu) it was 4 (above 30% growth inhibition rate); in test [1] (8 g/mu), 4 (above 30% growth inhibition rate); in test [1] (16 g/mu), 5 (above 50% growth inhibition rate). Moreover, in test [2], the “weed control effect … Flixweed” value was determined as 10.

Consider `Cn1ncc(C(=O)c2ccc(S(C)(=O)=O)c(Cn3cc(Cl)cn3)c2Cl)c1O` [Compound 10], for which the “weed control effect … Barnyard grass” value in test [1] (1 g/mu) is 2 (above 20% growth inhibition rate); in test [1] (2 g/mu), 4 (above 30% growth inhibition rate); in test [1] (4 g/mu) it was 4 (above 30% growth inhibition rate); in test [1] (8 g/mu), 7 (above 70% growth inhibition rate); in test [1] (16 g/mu), 8 (above 80% growth inhibition rate). For the same molecule, the “weed control effect … Flixweed” value in test [2] is 10.

As to `Cn1nc(C2CC2)c(C(=O)c2ccc(S(C)(=O)=O)c(Cn3cc(Cl)cn3)c2Cl)c1O` [Compound 11], the “weed control effect … Barnyard grass” value was 2 (above 20% growth inhibition rate) in test [1] (1 g/mu); 4 (above 30% growth inhibition rate) in test [1] (2 g/mu); 4 (above 30% growth inhibition rate) in test [1] (4 g/mu); 6 (above 60% growth inhibition rate) in test [1] (8 g/mu); 7 (above 70% growth inhibition rate) in test [1] (16 g/mu). The “weed control effect … Flixweed” value in test [2] came to 10.

For the molecule `CCS(=O)(=O)Oc1c(C(=O)c2ccc(S(C)(=O)=O)c(Cn3cc(C)cn3)c2Cl)c(C)nn1C` [Compound 32], the “weed control effect … Barnyard grass” value was 5 (above 50% growth inhibition rate) in test [1] (1 g/mu); 6 (above 60% growth inhibition rate) in test [1] (2 g/mu); 5 (above 50% growth inhibition rate) in test [1] (4 g/mu); 7 (above 70% growth inhibition rate) in test [1] (8 g/mu); 8 (above 80% growth inhibition rate) in test [1] (16 g/mu). The “weed control effect … Flixweed” value in test [2] is reported as 10.

Turning to `Cc1cc(C)n(Cc2c(S(C)(=O)=O)ccc(C(=O)c3c(C)nn(C)c3OC(=O)c3nc(Cl)ccc3Cl)c2Cl)n1` [Compound 40], the “weed control effect … Barnyard grass” value is reported as 3 (above 30% growth inhibition rate) in test [1] (1 g/mu); 5 (above 50% growth inhibition rate) in test [1] (2 g/mu); 5 (above 50% growth inhibition rate) in test [1] (4 g/mu); 7 (above 70% growth inhibition rate) in test [1] (8 g/mu); 8 (above 80% growth inhibition rate) in test [1] (16 g/mu). Also, the “weed control effect … Flixweed” value in test [2] is recorded as 10.

As for `CCc1nn(CC)c(O)c1C(=O)c1ccc(S(C)(=O)=O)c(Cn2nc(C)cc2C)c1Cl` [Compound 26], the “weed control effect … Barnyard grass” value in test [1] (1 g/mu) was 2 (above 20% growth inhibition rate); in test [1] (2 g/mu), 2 (above 20% growth inhibition rate); in test [1] (4 g/mu) it was 4 (above 30% growth inhibition rate); in test [1] (8 g/mu), 3 (above 30% growth inhibition rate); in test [1] (16 g/mu), 5 (above 50% growth inhibition rate). Also, in test [2], the “weed control effect … Flixweed” value came to 10.

Regarding `Cc1nn(C(C)C)c(O)c1C(=O)c1ccc(S(C)(=O)=O)c(Cn2cc(Cl)cn2)c1Cl` [Compound 30], the “weed control effect … Barnyard grass” value in test [1] (1 g/mu) was 2 (above 20% growth inhibition rate); in test [1] (2 g/mu), 3 (above 30% growth inhibition rate); in test [1] (4 g/mu), 5 (above 50% growth inhibition rate); in test [1] (8 g/mu), 7 (above 70% growth inhibition rate); in test [1] (16 g/mu) it was 7 (above 70% growth inhibition rate). In addition, in test [2], the “weed control effect … Flixweed” value was 10.

Take `CCn1nc(C2CC2)c(C(=O)c2ccc(S(C)(=O)=O)c(Cn3cc(C)cn3)c2Cl)c1O` [Compound 22]: the “weed control effect … Barnyard grass” value is 2 (above 20% growth inhibition rate) in test [1] (1 g/mu); 4 (above 30% growth inhibition rate) in test [1] (2 g/mu); 6 (above 60% growth inhibition rate) in test [1] (4 g/mu); 6 (above 60% growth inhibition rate) in test [1] (8 g/mu); 10 in test [1] (16 g/mu). In test [2], the “weed control effect … Flixweed” value was determined as 10.
